Laboratory results published in patent US20220323406A1, “METHODS AND COMPOSITIONS FOR DIFFERENTIATING STEM CELLS” (Massachusetts Institute of Technology, priority 2019, published 2022).

Key:
ENR+CD organoids = experiment: Primary screen: ATP (CellTiter-Glo 3D, CTG) cell number/viability, 2.5-D 384-well ENR+CD organoids; conditions: primary screen; for Z.CTG: standard z score;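 for all read-outs here: compounds given at plating and again on day 3 over a 6-day differentiation from ENR+CV stem-cell-enriched precursors, ATP measured on day 6, plate median as control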
[1] = system: ENR+CD organoids (ISC to Paneth cell differentiation); experiment: Primary screen: basal (non-stimulated) lysozyme secretion LYZ.NS, 2.5-D 384-well ENR+CD organoid differentiation; assay type: cell-based, mouse; conditions: primary screen; for Z.LYZ.NS: standard z score
Description: (§1) High-throughput screening.

[2] = system: ENR+CD organoids (ISC to Paneth cell differentiation); experiment: Primary screen: CCh-stimulated lysozyme secretion LYZ.S, 2.5-D 384-well ENR+CD organoid differentiation; assay type: cell-based, mouse; conditions: primary screen
Description: as §1

[3] = dose 0.08 uM, FC vs plate median
[4] = dose 0.40 uM, FC vs plate median
[5] = dose 2.00 uM, FC vs plate median
[6] = dose 10.00 uM, FC vs plate median

CCN[C@H]1CN(CCCOC)S(=O)(=O)c2sc(S(N)(=O)=O)cc21 [Brinzolamide]
Dose.FC.CTG (ENR+CD organoids; dose 0.08 uM): −0.007 log2 fold change
Dose.FC.CTG (ENR+CD organoids; dose 0.40 uM): −0.068 log2 fold change
Z.CTG (standard z score) (ENR+CD organoids; dose 0.40 uM): −0.163
Dose.FC.CTG (ENR+CD organoids; dose 2.00 uM): 0.118 log2 fold change
Z.CTG (standard z score) (ENR+CD organoids; dose 2.00 uM): 0.282
Dose.FC.CTG (ENR+CD organoids; dose 10.00 uM): 0.078 log2 fold change
Z.CTG (standard z score) (ENR+CD organoids; dose 10.00 uM): 0.186
Dose.FC.LYZ.NS ([1]; dose 0.08 uM): 0.133 log2 fold change
Z.LYZ.NS (standard z score) ([1]; dose 0.08 uM): 1.159
Dose.FC.LYZ.NS ([1]; dose 0.40 uM): 0.084 log2 fold change
Z.LYZ.NS (standard z score) ([1]; dose 0.40 uM): 0.733
Dose.FC.LYZ.NS ([1]; dose 2.00 uM): 0.059 log2 fold change
Z.LYZ.NS (standard z score) ([1]; dose 2.00 uM): 0.511
Dose.FC.LYZ.NS ([1]; dose 10.00 uM): 0.060 log2 fold change
Z.LYZ.NS (standard z score) ([1]; dose 10.00 uM): 0.521
Dose.FC.LYZ.S ([2]; dose 0.08 uM): 0.030 log2 fold change
Dose.FC.LYZ.S ([2]; dose 0.40 uM): 0.052 log2 fold change
Dose.FC.LYZ.S ([2]; dose 2.00 uM): 0.064 log2 fold change
Dose.FC.LYZ.S ([2]; dose 10.00 uM): 0.083 log2 fold change

Cc1ccc(NCCCc2ccccc2)c(N)c1 [JSH-23]
Dose.FC.CTG (log2 fold change) (ENR+CD organoids; dose 0.08 uM): 0.193
Z.CTG (standard z score) (ENR+CD organoids; dose 0.08 uM): 0.462
Dose.FC.CTG (log2 fold change) (ENR+CD organoids; dose 0.40 uM): 0.230
Z.CTG (standard z score) (ENR+CD organoids; dose 0.40 uM): 0.548
Dose.FC.CTG (log2 fold change) (ENR+CD organoids; dose 2.00 uM): 0.074
Z.CTG (standard z score) (ENR+CD organoids; dose 2.00 uM): 0.176
Dose.FC.CTG (log2 fold change) (ENR+CD organoids; dose 10.00 uM): 0.046
Z.CTG (standard z score) (ENR+CD organoids; dose 10.00 uM): 0.110
Dose.FC.LYZ.NS (log2 fold change) ([1]; dose 0.08 uM): 0.054
Z.LYZ.NS (standard z score) ([1]; dose 0.08 uM): 0.474
Dose.FC.LYZ.NS (log2 fold change) ([1]; dose 0.40 uM): 0.079
Z.LYZ.NS (standard z score) ([1]; dose 0.40 uM): 0.688
Dose.FC.LYZ.NS (log2 fold change) ([1]; dose 2.00 uM): −0.002
Z.LYZ.NS (standard z score) ([1]; dose 2.00 uM): −0.017
Dose.FC.LYZ.NS (log2 fold change) ([1]; dose 10.00 uM): −0.046
Z.LYZ.NS (standard z score) ([1]; dose 10.00 uM): −0.399
Dose.FC.LYZ.S (log2 fold change) ([2]; dose 0.08 uM): 0.164
Dose.FC.LYZ.S (log2 fold change) ([2]; dose 0.40 uM): 0.106
Dose.FC.LYZ.S (log2 fold change) ([2]; dose 2.00 uM): 0.005
Dose.FC.LYZ.S (log2 fold change) ([2]; dose 10.00 uM): −0.026

Cc1cnc(-c2cc(N3CCN(C(=O)CCS(C)(=O)=O)CC3)ncc2Cl)c(C)c1 [PF-5274857]
Z.CTG (ENR+CD organoids; dose 0.08 uM): −0.242
Z.CTG (ENR+CD organoids; dose 0.40 uM): −0.096
Z.CTG (ENR+CD organoids; dose 2.00 uM): 0.131
Z.CTG (ENR+CD organoids; dose 10.00 uM): −0.183
Dose.FC.CTG (ENR+CD organoids; [3]): −0.101 log2 fold change
Dose.FC.CTG (ENR+CD organoids; [4]): −0.040 log2 fold change
Dose.FC.CTG (ENR+CD organoids; [5]): 0.055 log2 fold change
Dose.FC.CTG (ENR+CD organoids; [6]): −0.076 log2 fold change
Z.LYZ.NS ([1]; dose 0.08 uM): 0.683
Z.LYZ.NS ([1]; dose 0.40 uM): −0.256
Z.LYZ.NS ([1]; dose 2.00 uM): 0.094
Z.LYZ.NS ([1]; dose 10.00 uM): 0.642
Dose.FC.LYZ.NS [1, 3]: 0.078 log2 fold change
Dose.FC.LYZ.NS [1, 4]: −0.029 log2 fold change
Dose.FC.LYZ.NS [1, 5]: 0.011 log2 fold change
Dose.FC.LYZ.NS [1, 6]: 0.074 log2 fold change
Dose.FC.LYZ.S [2, 3]: 0.187 log2 fold change
Dose.FC.LYZ.S [2, 4]: −0.034 log2 fold change
Dose.FC.LYZ.S [2, 5]: 0.042 log2 fold change
Dose.FC.LYZ.S [2, 6]: 0.076 log2 fold change

CC#CCn1c(N2CCC[C@@H](N)C2)nc2c1c(=O)n(Cc1nc(C)c3ccccc3n1)c(=O)n2C [Linagliptin]
Dose.FC.CTG (log2 fold change) (ENR+CD organoids; dose 0.08 uM): 0.163
Dose.FC.CTG (log2 fold change) (ENR+CD organoids; dose 0.40 uM): 0.209
Dose.FC.CTG (log2 fold change) (ENR+CD organoids; dose 2.00 uM): 0.023
Dose.FC.CTG (log2 fold change) (ENR+CD organoids; dose 10.00 uM): −0.011
Dose.FC.LYZ.NS (log2 fold change) ([1]; dose 0.08 uM): 0.208
Z.LYZ.NS (standard z score) ([1]; dose 0.08 uM): 1.809
Dose.FC.LYZ.NS (log2 fold change) ([1]; dose 0.40 uM): 0.055
Z.LYZ.NS (standard z score) ([1]; dose 0.40 uM): 0.478
Dose.FC.LYZ.NS (log2 fold change) ([1]; dose 2.00 uM): 0.021
Z.LYZ.NS (standard z score) ([1]; dose 2.00 uM): 0.182
Dose.FC.LYZ.NS (log2 fold change) ([1]; dose 10.00 uM): 0.080
Z.LYZ.NS (standard z score) ([1]; dose 10.00 uM): 0.695
Dose.FC.LYZ.S (log2 fold change) ([2]; dose 0.08 uM): 0.140
Dose.FC.LYZ.S (log2 fold change) ([2]; dose 0.40 uM): 0.047
Dose.FC.LYZ.S (log2 fold change) ([2]; dose 2.00 uM): −0.032
Dose.FC.LYZ.S (log2 fold change) ([2]; dose 10.00 uM): 0.050
